Legend:
[1] = system: human umbilical vein endothelial cells (HUVEC); assay: Inhibition of the release of interleukin-6 from endothelial cells; assay type: cell-based; details: 4 hrs
Description: In addition we have identified a specific assay for the determination of the claimed activity of the peptides, which consists of measurement of the inhibition of the release of interleukin-6 from endothelial cells. […] This assay is therefore also part of the invention.
96-well cell culture plates were coated with 1% gelatine. Into each well, approx. 23,000 human umbilical vein endothelial cells (HUVEC) in 200 μl of medium were pipetted. The HUVECs were taken from passage 4 form a pool of four different donors. The medium used for dilution was standard medium with 10% FCS, ECGS in Iscove's modified Dulbecco medium (Petzelbauer et al., J Immunol. 151:5062-5072, 1993). Within approx. 18 hrs at 37° C. in an incubator, a confluent cell monolayer is formed. The supernatant was removed and replaced with medium containing either NDSK-II alone or NDSK-II plus peptide Bβ15Δ([…]).
The total final volume was 200 μl. After 4 hrs of incubation at 37° C. under 5% CO2, the cell culture supernatant was again removed and centrifuged for 10 min at 4° C. at 3000 U/min. The concentration of interleukin-6 (IL-6) was measured using a commercial assay (IL-6 Quantikine Immonuassay (R&D Sytems; Catalog#: D6050; Lot: 231361). Calibration was done according to the standard protocol supplied by the assay manufacturer with various dilutions of recombinant IL-6 and medium. Readings of the optical density were taken at a wavelength of 450 nm with a reference wavelength of 550 nm.

[2] = system: Domestic male landrace pigs; assay: Hemorrhagic shock in domestic pigs; assay type: in vivo, pig
Description: Domestic male landrace pigs weighing 20-35 kg were fed a standard diet and received water ad libitum. All procedures were performed in concurrence with the AAALAC guidelines and according to the Guide for the Care of Laboratory Animals (Department of Health and Human Services, National Institutes of Health, Publication Nr. 86-23). Pigs were premedicated with azaperon (4 mg/kg). The ear vein was cannulated and the anesthetic propofol was applied. The animals were fully instrumented and equlibrated for 1 hr in order to recieve a stable baseline. Subsequently, the animals (n=16) were exsanguinated until a mean arterial pressure of 40 mm Hg was achieved. They were kept at this level constituting a hemorrhagic shock for 1 hr. After this time the lost blood volume was resubstituted with shed blood and salt solutions (cristalloids). In addition the animals received a bolus dose of the peptide Bβ15-42 (n=8) or a random sequence peptide (n=8) in a dose of […] each as a single intravenous bolus. During the ensuing reperfusion period over the duration of 5 hrs, Horrowitz index (measuring blood oxigenation), PEEP (positive end-expiratory pressure in mm Hg) and cardiac ejection volume were determined at various timepoints.
In the following tables the following timepoints were used:
• Timepoint 1: 1 hr before hemorrhagic shock • Timepoint 2: during hemorrhagic shock • Timepoint 3: 1 hr after the start of reperfusion • Timepoint 4: 3 hrs after the start of reperfusion • Timepoint 5: 5 hrs after the start of reperfusion

[3] = in vivo, ischemia/reperfusion; WO 02/48180; cited from earlier work
[4] = molecular target: T1, recombinant human VE-cadherin FC fusion protein (Homo sapiens, UniProt P33151); assay: ELISA: binding of FLAG-tagged peptide to coated VE-cadherin; details: VE-cadherin coated 8 nM/ml
T1 construct: purchased R&D Systems, Minneapolis
T1 sequence (P33151 with tags, fused parts or gaps limits assumed): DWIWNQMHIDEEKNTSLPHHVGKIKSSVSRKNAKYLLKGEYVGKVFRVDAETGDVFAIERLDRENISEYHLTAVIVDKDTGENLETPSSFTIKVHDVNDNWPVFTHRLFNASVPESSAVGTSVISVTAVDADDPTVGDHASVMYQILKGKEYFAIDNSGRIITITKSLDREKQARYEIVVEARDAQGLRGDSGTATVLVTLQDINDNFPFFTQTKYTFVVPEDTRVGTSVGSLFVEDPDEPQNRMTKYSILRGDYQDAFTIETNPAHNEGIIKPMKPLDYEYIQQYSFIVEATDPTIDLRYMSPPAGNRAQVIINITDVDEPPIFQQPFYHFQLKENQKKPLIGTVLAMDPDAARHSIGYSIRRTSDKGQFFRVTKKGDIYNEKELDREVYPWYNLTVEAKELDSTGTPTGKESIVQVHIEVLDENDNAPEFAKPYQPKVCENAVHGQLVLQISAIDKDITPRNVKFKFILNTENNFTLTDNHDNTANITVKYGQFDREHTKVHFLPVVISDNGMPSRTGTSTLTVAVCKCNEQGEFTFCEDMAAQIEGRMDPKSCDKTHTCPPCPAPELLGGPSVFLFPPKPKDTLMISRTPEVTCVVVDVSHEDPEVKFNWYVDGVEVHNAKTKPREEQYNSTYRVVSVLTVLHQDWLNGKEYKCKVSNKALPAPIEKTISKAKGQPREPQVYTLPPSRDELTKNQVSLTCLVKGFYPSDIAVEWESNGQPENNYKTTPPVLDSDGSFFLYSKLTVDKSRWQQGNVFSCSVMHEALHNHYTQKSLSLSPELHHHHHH
From the text: We have developed a modified ELISA working with the same principles described by others, but the purpose of the herein described ELISA is not to quantify fibrin degradation products, but to search for proteins, peptides or compounds which interfere with the binding of the Bbeta15-42 sequence and the VE-cadherin. […] Into this system one can introduce any other additional substance and measure if this substance inhibits VE-cadherin/Bbeta15-42 binding.
In detail, 96 well protein immobilizer plates (Exiqon, Vedbaek, DK) were coated with recombinant human VE-cadherin FC fusion protein (8 nM/ml; R&D Systems, Minneapolis) in PBS and were left overnight at 4° C. Plates were then washed and incubated with peptide Bβ15-42 ([…]) tagged with a FLAG-sequence (DYKDDDDK) at the C-terminus of the peptide or with a FLAG-tagged random peptide ([…]) at a concentration of 0-80 μMol/ml. After washing, bound FLAG-tagged peptide was detected by incubation with a peroxidase-labelled anti-FLAG antibody (Sigma, St. Louis, USA) and chromogenic substrate. Optical density was determined by an ELISA plate reader set at a wavelength of 450 nm. Data represent the mean of three independent experiments, each performed in triplicates.

[5] = Timepoint 1: 1 hr before hemorrhagic shock (before dosing)
[6] = Timepoint 2: during hemorrhagic shock (before dosing)
[7] = Timepoint 3: 1 hr after the start of reperfusion, 2.4 mh/kg single intravenous bolus
[8] = Timepoint 4: 3 hrs after the start of reperfusion, 2.4 mh/kg single intravenous bolus
[9] = Timepoint 5: 5 hrs after the start of reperfusion, 2.4 mh/kg single intravenous bolus

## GHRPLDKKREEAPSLRPAPPPISGGGYR [peptide Bβ15-42, peptide matching amino acids 15-42 of the Bβ chain of human fibrin]
[1]; 0.3 μg/ml NDSK-II + 10 μg/ml peptide
  IL-6 concentration: 15 ± 2 pg/mL
[1]; 3 μg/ml NDSK-II + 10 μg/ml peptide
  IL-6 concentration: 12 ± 3(p < 0.05 cmpd with pg/ml
[1]; 30 μg/ml NDSK-II + 10 μg/ml peptide
  IL-6 concentration: 13 ± 1(p < 0.05 cmpd with pg/ml
[2]; [5]
  EV (cardiac ejection volume): 44 ± 2 mL
  Horrowitz Index (blood oxigenation): 465 +/− 20
  PEEP (positive end-expiratory pressure): 4 +/− 0.1 mmHg
[2]; [6]
  EV (cardiac ejection volume): 6 ± 1 mL
  Horrowitz Index (blood oxigenation): 450 +/− 20
  PEEP (positive end-expiratory pressure): 4 +/− 0.1 mmHg
[2]; [7]
  EV (cardiac ejection volume): 31 ± 4 mL
  Horrowitz Index (blood oxigenation): 420 +/− 10
  PEEP (positive end-expiratory pressure): 4.1 +/− 0.2 mmHg
[2]; [8]
  EV (cardiac ejection volume): 32 ± 3 mL
  Horrowitz Index (blood oxigenation): 410 +/− 20
  PEEP (positive end-expiratory pressure): 4.2 +/− 0.3 mmHg
[2]; [9]
  EV (cardiac ejection volume): 37 ± 4 mL
  Horrowitz Index (blood oxigenation): 420 +/− 30
  PEEP (positive end-expiratory pressure): 4.3 +/− 0.2 mmHg
[3]
  myocardial infarct size (in words): reduces myocardial infarct sizes

## 15-42 FLAG: peptide Bβ15-42 (GHRPLDKKREEAPSLRPAPPPISGGGYR) tagged with a FLAG-sequence (DYKDDDDK) at the C-terminus (GHRPLDKKREEAPSLRPAPPPISGGGYRDYKDDDDK)
[4]; FLAG-tagged peptide 0.23 μM/ml
  binding to VE-cadherin, optical density (450 nm), mean: 0.01
[4]; FLAG-tagged peptide 0.7 μM/ml
  binding to VE-cadherin, optical density (450 nm), mean: 0.02
[4]; FLAG-tagged peptide 2.3 μM/ml
  binding to VE-cadherin, optical density (450 nm), mean: 0.08
[4]; FLAG-tagged peptide 7 μM/ml
  binding to VE-cadherin, optical density (450 nm), mean: 0.33
[4]; FLAG-tagged peptide 14 μM/ml
  binding to VE-cadherin, optical density (450 nm), mean: 0.92
[4]; FLAG-tagged peptide 21 μM/ml
  binding to VE-cadherin, optical density (450 nm), mean: 1.3
[4]; FLAG-tagged peptide 35 μM/ml
  binding to VE-cadherin, optical density (450 nm), mean: 1.5
[4]; FLAG-tagged peptide 46 μM/ml
  binding to VE-cadherin, optical density (450 nm), mean: 1.93
[4]; FLAG-tagged peptide 70 μM/ml
  binding to VE-cadherin, optical density (450 nm), mean: 2.1
